Assay results from US11197862B2, “Methods of preventing toxicity of platinum drugs” (XOMICS BIOPHARMA, INC., priority 2015, dated 2021).
“Also recorded” adds a separate entry of the source.

Legend:
[1] = test system: cells co-expressing OCT2 and MATE1; assay: Intracellular oxaliplatin content in cells co-expressing OCT2 and MATE1; assay type: cell-based; conditions: oxaliplatin 100 μM in 4% BSA HBSS, 90 min
Excerpt: In most naturally occurring cells, uptake transporters co-exist with efflux transporters. It is the interplay between the uptake and efflux transporters that determines the net intracellular accumulation of a substrate. One example is in the proximal tubule epithelial cells in the kidney, where the basolaterally expressed transporters, mainly OCT2, work in concert with the apically expressed MATE1 and MATE2K [5]. […] Cells with single expression of OCT2 or GFP mock were also used as a control.

[2] = test system: MDCK cells expressing OCT2, MATE1 and MATE2K; assay: LDH cytotoxicity of cisplatin in MDCK-II triple-transporter model; assay type: cell-based, canine; conditions: 6 μM buflomedil; 1 mM cisplatin; FIG. 7
Method: A triple-transporter model for OCT2(SLC22A2), MATE1(SLC47A1), and MATE2-K(SLC47A2) was created by transfecting fully confluent MDCK-II cell monolayers with DNA mixture containing the plasmids encoding OCT2, MATE1, and MATE-2K at concentrations of 40, 15, and 5 ng/μl, respectively. […] This systems were cultured in complete medium consisting of Dulbecco's modified Eagle's medium without phenyl-red with 10% fetal bovine serum in an atmosphere of 5% CO2-95% air at 37° C. The apical medium was adjusted to pH 6.7 with 25 mM of 2-(N-morpholino) ethanesulfonic acid (MES).
Dolutegravir was tested at 10 μM. […] Cytotoxicity was tested using the same procedure described above.

[3] = Buflomedil plasma concentration in Balb/C mice after IV and IP administration; assay type: in vivo; conditions: male, mouse
Method: Male mice of 7-8 weeks of age were allowed to acclimate for 6 days. […] Blood was collected at 0.083, 0.5, and 1 hour into Heparin tubes. The plasma was obtained through centrifugation of the blood at 4000 rpm at 4° C.
For plasma sample analysis, the samples were thawed and mixed well before 20 µL aliquots were processed using protein precipitation by internal standard (Verapamil) containing organic solution, methanol: acetonitrile 5:95 (v/v). After vigorous vortexing and refrigerated centrifugation at 4000 rpm, 50 μL of the extract from each sample was reconstituted with 70 μL of 0.1% formic acid in water. […] The calibration curve was extracted in the same way as the plasma samples. The final extracts were analyzed by LC-MS/MS using positive electrospray ionizations under the multiple-reaction-monitoring (MRM) mode for the detection of buflomedil. The standard curve fitted by linear regression was used to quantify the analyte in the matrix using Analyst 1.5.2 software (AB Sciex) Results

[4] = test system: Balb/c mice exposed to chronic treatment with Oxaliplatin; assay: Morphometry and histopathology of DRG neurons in chronic oxaliplatin neuropathy model; assay type: in vivo, mouse; conditions: for area of DRG neuron cell bodies and nucleoli (morphometry): OXA 3.5 mg/kg iv twice a week for 4 weeks (8 cycles) ± BFMD 30 mg/kg ip + 15 mg/kg iv
Excerpt: The investigator was blind to the nerve and DRG conditions for these analyses. Three animals from each group were sacrificed four days after the last oxaliplatin dose. The left sciatic nerves and the L4-L5 DRGs were harvested and processed following previously reported protocols, resin embedded and sectioned for light and electron microscope analysis. For the light microscopy analysis, 1 μm semithin sections were stained with toluidine blue and examined using a Nikon Eclipse E200 light microscope (Nikon, Firenze, Italy). For the electron microscopy analysis, ultrathin sections (80 nm) counterstained with uranyl acetate and lead citrate, were examined with a Philips CM 10 transmission electron microscope (Philips, Eindhoven, Netherlands).
The investigator was blind to the experimental conditions of the tissue for these experiments. One micron thick semithin sections stained with toluidine blue were used for morphometric examination of the DRGs from control (n=3) and oxaliplatin-treated mice (n=3). (Renn et al. Molecular Pain 2011, 7:29). Only the cells where the nucleolus was included in the section plane of 50 μm-spaced out sections were considered to avoid the overlapping of the same cell bodies and they were analyzed with computer-assisted image analysis (ImageJ, NIH) to measure the soma and nucleolus size of at least 300 DRG neurons per mouse.

[5] = test system: Balb/c mice exposed to chronic treatment with Oxaliplatin; assay: Dynamic Plantar Aesthesiometer Test in chronic oxaliplatin neuropathy model; assay type: in vivo, mouse; conditions: for mechanical allodynia, Dynamic Aesthesiometer Test at the end of treatment: OXA 3.5 mg/kg iv, 8 cycles ± BFMD 30 mg/kg ip + 15 mg/kg iv
Method: The Dynamic Plantar Aesthesiometer Test was used to determine the alterations in mechanical pain perception and their changes due to pharmacological treatment. Mice were accustomed to the device 3 days before performing the tests after a 1 hour acclimatization period followed by testing. The mechanical nociceptive threshold was assessed using a Dynamic Aesthesiometer Test (model 37450, Ugo Basile Biological Instruments, Comerio. Italy), which generated a linearly increasing mechanical force. At each time point, after the acclimatization period, a servo-controlled mechanical stimulus (a pointed metallic filament, 0.5-mm diameter) was applied to the plantar surface of the hind paw, which exerted a progressively increasing punctuate pressure, reaching up to 15 g within 15 seconds. The pressure evoking a clear voluntary hind-paw withdrawal response was recorded automatically and taken as representing the mechanical nociceptive threshold index. The mechanical threshold was always assessed alternatively on each side every 2 minutes on 3 occasions to yield a mean value. The results represent the maximal pressure (expressed in grams) tolerated by the animals. There was an upper limit cutoff of 30 seconds, after which the mechanical stimulus was automatically terminated.

[6] = Mortality, clinical observations and body weight in the chronic model; assay type: in vivo, mouse; conditions: BFMD 30 mg/kg ip + 15 mg/kg iv ± OXA 3.5 mg/kg iv, twice a week for 4 weeks; n=12/group
[7] = test system: Balb/c mice exposed to acute treatment with Oxaliplatin; assay: Dynamic test (mechanical pain threshold) after a single oxaliplatin administration; assay type: in vivo, mouse; conditions: 24 hours after single OXA 3.5 mg/kg iv, DTG 4 mg/kg ip 1 hour before, CPC 4 mg/kg iv co-administered
Method: OXA vehicle, OXA, CPC, DTG, DTG+OXA and CPC+OXA were administered once time. In the group co-administered with OXA and DTG. DTG was injected intraperitoneally 1 hour before the administration of OXA. In the group co-administered with OXA and CPC, CPC was co-administered with OXA intravenously. Mechanical allodynia and cold sensory threshold (dynamic test and cold plate test) were performed 24 and 48 hours after the treatment, respectively, using the methods described in EXAMPLE 15 Plasma Sample Collection

[8] = 14-week toxicity study in monkey, females, PMDA 2012, cited from earlier work
[9] = human, in vivo

With `COc1cc(OC)c(C(=O)CCCN2CCCC2)c(OC)c1` [Buflomedil, 4-pyrrolidin-1-yl-1-(2,4,6-trimethoxyphenyl)butan-1-one] the “cellular accumulation of oxaliplatin in cells co-expressing OCT2 and MATE1” value [1] was “reduced cellular accumulation of oxaliplatin”, the “effect on cisplatin cytotoxicity” value [2] was “significantly reduced cytotoxicity from 1 mM of cisplatin” and the concentration at 10 min ([3]; Balb/C, other: IV/IP (intravenous group and intraperitoneal groups), 10 mg/kg IV, 20 or 40 mg/kg IP, each group) was greater than 2000 ng/mL. For the same compound, the bioavailability ([3]; ip, Balb/C mice, read-out: estimated bioavailability of IP administration) was 40 to 60%, the “area of DRG neuron cell bodies and nucleoli (morphometry)” value ([4]; listed as BFMD) was “nearly completely prevented OXA's induced DRG neuronal injury; also recorded: no difference from the CTRL group” and the “area of DRG neuron cell bodies and nucleoli (morphometry)” value ([4]; listed as buflomedil) was “effective on preventing dorsal root ganglion (DRG) nerve cell injury”. The “DRG histopathology (light and electron microscopy)” value ([4]; OXA 3.5 mg/kg iv, 8 cycles ± BFMD 30 mg/kg ip + 15 mg/kg iv) was “look clearly similar to the control”, the “mechanical allodynia, Dynamic Aesthesiometer Test at the end of treatment” value ([5]; listed as BFMD) was “only the groups treated with OXA alone showed the development of mechanical allodynia” and the “mechanical allodynia, Dynamic Aesthesiometer Test at the end of treatment” value ([5]; listed as buflomedil) was “effective on preventing mechanical allodynia”. The “mechanical allodynia (mechanical pain threshold)” value ([5]; buflomedil 80 mg/kg po 2 hours before OXA, 8 cycles, n=3/group) was “effective on reducing mechanical (FIG. 30A) and cold (FIG. 30B) allodynia; also recorded: showed protective effects against OXAIPN” and the mortality [6] was “Two animals (BFMD and OXA+BFMD groups) died after the first administration; also recorded: one animal (OXA+BFMD group) died after the last administration”.
In the case of `C[C@@H]1CCO[C@H]2Cn3cc(C(=O)NCc4ccc(F)cc4F)c(=O)c(O)c3C(=O)N12` [Dolutegravir], the “Mechanical Pain Threshold (MPT), mechanical hypersensitivity” value [7] is listed as “effective on reducing mechanical hypersensitivity”, the “Mechanical Pain Threshold (MPT), mechanical hypersensitivity” value ([7]; listed as DTG) is listed as “nearly completely alleviated mechanical hypersensitivity” and the “mean plasma Cmax at the NOAEL dose” value [8] is listed as 23500 ng/mL. The Cmax ([8]; read-out: mean plasma Cmax at the NOAEL dose) was 54.8 µM.
In the case of `Clc1ccc(COC(Cn2ccnc2)c2ccc(Cl)cc2Cl)c(Cl)c1` (stereo not shown) [Miconazole], the “Plasma peak unbound concentration Cmax,u” value [9] is reported as 1.19 µM.
